# Measurements as given in article PMC8330742, “New benzothieno[2,3-c]pyridines as non-steroidal CYP17 inhibitors: design, synthesis, anticancer screening, apoptosis induction, and in silico ADME profile studies” (Journal of Enzyme Inhibition and Medicinal Chemistry, 2021).
# Experiments:
# RXF 393 = test: NCI-60 SRB screen; format: cell-based, human; conditions: RXF 393; five dose
# SF-295 = test: NCI-60 SRB screen; format: cell-based, human; conditions: SF-295;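 on IC50: half-maximal inhibitory concentration read as cell viability unlike GI50 net growth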
# [1] = system: panel of 60 cancer cell lines; test: NCI-60 SRB screen, mean or range over the panel; format: cell-based, human; conditions: Homo sapiens
# NCI/ADR-RES = test: NCI-60 SRB screen; format: cell-based, human;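 on IC50: half-maximal inhibitory concentration read as cell viability unlike GI50 net growth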
# NCI-H322M = test: NCI-60 SRB screen; format: cell-based, human;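 on IC50: half-maximal inhibitory concentration read as cell viability unlike GI50 net growth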
# 786-0 = test: NCI-60 SRB screen; format: cell-based; conditions: 786-0;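 on IC50: half-maximal inhibitory concentration read as cell viability unlike GI50 net growth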
# M14 = test: NCI-60 SRB screen; format: cell-based, human; conditions: M14
# HOP-92 = test: NCI-60 SRB screen; format: cell-based, human; conditions: HOP-92
# K-562 = test: NCI-60 SRB screen; format: cell-based, human; conditions: K-562
# OVCAR-4 = test: NCI-60 SRB screen; format: cell-based, human; conditions: OVCAR-4
# EKVX = test: NCI-60 SRB screen; format: cell-based, human
# UACC-62 = test: NCI-60 SRB screen; format: cell-based, human; conditions: UACC-62
# HT-29 = test: NCI-60 SRB screen; format: cell-based
# LOX IMVI = test: NCI-60 SRB screen; format: cell-based, human
# SK-MEL-2 = test: NCI-60 SRB screen; format: cell-based, human; conditions: SK-MEL-2
# OVCAR-3 = test: NCI-60 SRB screen; format: cell-based, human; conditions: OVCAR-3
# ACHN = test: NCI-60 SRB screen; format: cell-based
# SK-OV-3 = test: NCI-60 SRB screen; format: cell-based, human; conditions: SK-OV-3
# CAKI-1 = test: NCI-60 SRB screen; format: cell-based, human; conditions: CAKI-1
# IGROV1 = test: NCI-60 SRB screen; format: cell-based, human; conditions: IGROV1
# KM12 = test: NCI-60 SRB screen; format: cell-based, human; conditions: KM12
# MOLT-4 = test: NCI-60 SRB screen; format: cell-based; conditions: MOLT-4
# UACC-257 = test: NCI-60 SRB screen; format: cell-based, human; conditions: UACC-257
# [2] = Homo sapiens, single dose 10^−5 M, read-out: Growth inhibition (%)
# [3] = Homo sapiens, HT-29, HT29, five dose
# [4] = Homo sapiens, IGROV-1, five dose
compound,measurement,setting,value
"N#CC1C(=O)NC(c2ccccc2[N+](=O)[O-])c2sc3c(F)cccc3c21 (stereo not shown) [Compound 5c, 4-Cyano-8-fluoro-1-(2-nitrophenyl)-1,2-dihydro[1]benzothieno[2,3-c] pyridin-3(4H)-one]",TGI,RXF 393,100 µM
same,GI50,"SF-295; Homo sapiens, five dose",600 nM
same,IC50,"SF-295; Homo sapiens, five dose",10.5 µM
same,inhibition at 10 µM,SF-295; [2],79.2%
same,TGI,SF-295; five dose,100 µM
same,GI50,"[1]; mean graph midpoint over all tested cell lines, five dose, read-out: MG-MID GI50",210 nM
same,inhibition at 10 µM,"[1]; mean over the cell lines, single dose 10^−5 M, read-out: Mean growth inhibition (%)",46.9%
same,GI50,"NCI/ADR-RES; Homo sapiens, five dose",8.21 µM
same,IC50,"NCI/ADR-RES; Homo sapiens, five dose",16.6 µM
same,inhibition at 10 µM,NCI/ADR-RES; [2],31.5%
same,TGI,NCI/ADR-RES; five dose,100 µM
same,GI50,"NCI-H322M; Homo sapiens, five dose",7.37 µM
same,IC50,"NCI-H322M; Homo sapiens, five dose",23.4 µM
same,inhibition at 10 µM,NCI-H322M; [2],98%
same,TGI,NCI-H322M; five dose,100 µM
same,TGI,786-0; five dose,100 µM
same,GI50,"786-0; Homo sapiens, five dose",37 µM
same,IC50,"786-0; Homo sapiens, five dose",77.6 µM
same,LC50,"786-0; Homo sapiens, five dose",> 100 µM
same,inhibition at 10 µM,786-0; [2],10%
same,GI50,"M14; Homo sapiens, five dose",16.3 µM
same,IC50,"M14; Homo sapiens, five dose",28.2 µM
same,inhibition at 10 µM,M14; [2],7.3%
same,TGI,M14; five dose,100 µM
same,TGI,HOP-92; five dose,100 µM
same,GI50,"HOP-92; Homo sapiens, five dose",12.6 µM
same,IC50,"HOP-92; Homo sapiens, five dose",79.4 µM
same,inhibition at 10 µM,HOP-92; [2],115%
same,GI50,"K-562; Homo sapiens, K562, five dose",1980 nM
same,IC50,"K-562; Homo sapiens, K562, five dose",3.16 µM
same,inhibition at 10 µM,"K-562; Homo sapiens, K562, single dose 10^−5 M, read-out: Growth inhibition (%)",64.1%
same,TGI,K-562; five dose,100 µM
same,GI50,"OVCAR-4; Homo sapiens, five dose",1610 nM
same,IC50,"OVCAR-4; Homo sapiens, five dose",24.5 µM
same,inhibition at 10 µM,OVCAR-4; [2],100%
same,TGI,OVCAR-4; five dose,100 µM
same,GI50,"EKVX; Homo sapiens, five dose",2690 nM
same,IC50,"EKVX; Homo sapiens, five dose",13.8 µM
same,inhibition at 10 µM,EKVX; [2],35.3%
same,TGI,EKVX; five dose,100 µM
same,GI50,"UACC-62; Homo sapiens, five dose",360 nM
same,IC50,"UACC-62; Homo sapiens, five dose",1780 nM
same,inhibition at 10 µM,UACC-62; [2],90.6%
same,TGI,UACC-62; five dose,47.20 µM
same,TGI,"HT-29; HT29, five dose",100 µM
same,GI50,HT-29; [3],19.6 µM
same,IC50,HT-29; [3],25.7 µM
same,LC50 (concentration killing 50% of cells),HT-29; [3],> 100 µM
same,inhibition at 10 µM,"HT-29; Homo sapiens, HT-29, single dose 10^−5 M, read-out: Growth inhibition (%)",14.7%
same,GI50,"LOX IMVI; Homo sapiens, five dose",15.3 µM
same,IC50,"LOX IMVI; Homo sapiens, five dose",25.1 µM
same,inhibition at 10 µM,LOX IMVI; [2],8.64%
same,TGI,LOX IMVI; five dose,73.20 µM
same,GI50,"SK-MEL-2; Homo sapiens, five dose",12.7 µM
same,IC50,"SK-MEL-2; Homo sapiens, five dose",33.9 µM
same,inhibition at 10 µM,SK-MEL-2; [2],7.4%
same,TGI,SK-MEL-2; five dose,100 µM
same,GI50,"OVCAR-3; Homo sapiens, five dose",320 nM
same,IC50,"OVCAR-3; Homo sapiens, five dose",676 nM
same,inhibition at 10 µM,OVCAR-3; [2],114%
same,TGI,OVCAR-3; five dose,87.80 µM
same,GI50,"ACHN; Homo sapiens, five dose",15.7 µM
same,IC50,"ACHN; Homo sapiens, five dose",29.5 µM
same,"LC50 (NCI-60 lethal concentration, 50% net cell kill)","ACHN; Homo sapiens, five dose",> 100 µM
same,inhibition at 10 µM,ACHN; [2],34.3%
same,TGI,ACHN; five dose,100 µM
same,GI50,"SK-OV-3; Homo sapiens, five dose",12 µM
same,IC50,"SK-OV-3; Homo sapiens, five dose",44.7 µM
same,inhibition at 10 µM,SK-OV-3; [2],28.2%
same,TGI,SK-OV-3; five dose,100 µM
same,TGI,CAKI-1; five dose,100 µM
same,GI50,"CAKI-1; Homo sapiens, five dose",170 nM
same,IC50,"CAKI-1; Homo sapiens, five dose",562 nM
same,inhibition at 10 µM,CAKI-1; [2],94.7%
same,GI50,IGROV1; [4],4 nM
same,IC50,IGROV1; [4],178 nM
same,inhibition at 10 µM,"IGROV1; Homo sapiens, IGROV-1, single dose 10^−5 M, read-out: Growth inhibition (%)",99.7%
same,TGI,IGROV1; five dose,100 µM
same,GI50,"KM12; Homo sapiens, five dose",19.9 µM
same,IC50,"KM12; Homo sapiens, five dose",32.4 µM
same,inhibition at 10 µM,KM12; [2],8.58%
same,TGI,KM12; five dose,100 µM
same,GI50,"MOLT-4; Homo sapiens, five dose",19.1 µM
same,IC50,"MOLT-4; Homo sapiens, five dose",30.9 µM
same,LC50 (50% lethal concentration),"MOLT-4; Homo sapiens, five dose",> 100 µM
same,inhibition at 10 µM,MOLT-4; [2],13.5%
same,TGI,MOLT-4; five dose,100 µM
same,inhibition at 10 µM,"UACC-257; Homo sapiens, UACC-275 (so in the source), single dose 10^−5 M, read-out: Growth inhibition (%)",137%
same,GI50,"UACC-257; Homo sapiens, five dose",1730 nM
same,IC50,"UACC-257; Homo sapiens, five dose",5.89 µM
same,TGI,UACC-257; five dose,100 µM
